Among the test systems are Escherichia coli IP76-24; Candida albicans C627; Escherichia coli DC2; Escherichia coli UB1005; Nocardia asteroides; Proteus vulgaris.
Common to all, as to test: ≥ marks a high value that may be exact or a test limit, other limits are often not marked, values filed in µg/mL are converted to µM
Assay [1] deals with Aeromonas caviae IP67-16T.
Assay [2] deals with Aspergillus fumigatus IP1025-70.
Assay [3] deals with Aspergillus niger IP218-53.
For assay [4], the system named is Candida albicans IP884-65.
Assay [5] concerns Cryptococcus neoformans IP960-67.
Assay [6] has as its system Enterococcus faecalis IP103214.
Assay [7] concerns Nocardia brasiliensis IP16-80.
Assay [8] concerns Saccharomyces cerevisiae IP118079.
For assay [9], the system named is Staphylococcus aureus IP76-25.
Assay [10] deals with Trichophyton simii IP1063-74.
Assay [11] concerns Aeromonas salmonicida 97-4.
Assay [12] relates to Aeromonas salmonicida 99-1.
Assay [13] relates to Escherichia coli CGSC 4908.
In assay [14] the test system is Pseudomonas aeruginosa K799.
Assay [15] concerns Pseudomonas aeruginosa Z61.
For assay [16], the system named is Salmonella enterica serovar typhimurium MS7953s.
The subject of assay [17] is Salmonella enterica subsp. enterica serovar Typhimurium ATCC 14028s.
Assay [18] concerns Staphylococcus aureus C623.
For assay [19], the system named is Staphylococcus epidermidis C621.
Assay [20] relates to Enterococcus faecalis 981.
The test system of assay [21] is Staphylococcus aureus ATCC 25923.
The subject of assay [22] is Aspergillus flavus KCTC 7375.
Assay [23] relates to Bacillus megaterium KCTC 1096.
For assay [24], the system named is Bacillus subtilis KCTC 1918.
The subject of assay [25] is Candida albicans KCTC 7121.
For assay [26], the system named is Escherichia coli KCTC 1682.
Assay [27] relates to Fusarium oxysporum KCTC 6084.
For assay [28], the system named is Pseudomonas aeruginosa KCTC 1637.
For assay [29], the system named is Staphylococcus aureus KCTC 1621.
The test system of assay [30] is Trichosporon beigelii KCTC 7251.

Values after ≈ are worked out from the molar mass of the structure shown.

Take `CC[C@H](C)[C@H](NC(=O)CNC(=O)[C@H](CCCCN)NC(=O)[C@H](CC(C)C)NC(=O)[C@H](CCSC)NC(=O)[C@H](CC(N)=O)NC(=O)[C@H](CCCCN)NC(=O)[C@H](Cc1c[nH]c2ccccc12)NC(=O)[C@H](CC(C)C)NC(=O)[C@H](C)N)C(=O)NCC(=O)N[C@@H](CCCCN)C(=O)N[C@@H](CC(C)C)C(=O)N[C@@H](C)C(=O)NCC(=O)N[C@@H](CCCCN)C(=O)N[C@@H](C)C(=O)N[C@@H](C)C(=O)N[C@@H](CC(C)C)C(=O)NCC(N)=O` [ALWKNMLKGIGKLAGKAALG]: the MIC in [1] amounted to 2 µM (≈ 4.08 µg/mL); in [2], 15 µM (≈ 30.6 µg/mL); in [3] it was 15 µM (≈ 30.6 µg/mL); in assay [4], 4 µM (≈ 8.16 µg/mL); in assay [5], 1 µM (≈ 2.04 µg/mL); in assay [6], 2 µM (≈ 4.08 µg/mL). The MIC in the assay on Escherichia coli IP76-24 was found to be 2 µM (≈ 4.08 µg/mL); in assay [7], 30 µM (≈ 61.2 µg/mL); in assay [8] it was 4 µM (≈ 8.16 µg/mL); in [9], 8 µM (≈ 16.3 µg/mL); in assay [10], 15 µM (≈ 30.6 µg/mL).

`CC[C@H](C)[C@H](NC(=O)[C@H](Cc1cnc[nH]1)NC(=O)[C@H](CCCCN)NC(=O)[C@H](C)NC(=O)[C@H](C)NC(=O)[C@H](Cc1cnc[nH]1)NC(=O)[C@H](CCCNC(=N)N)NC(=O)CNC(=O)[C@H](Cc1cnc[nH]1)NC(=O)[C@H](CCCCN)NC(=O)[C@H](Cc1ccccc1)NC(=O)[C@@H](NC(=O)[C@H](CO)NC(=O)CNC(=O)[C@H](Cc1c[nH]c2ccccc12)NC(=O)CN)[C@@H](C)CC)C(=O)NCC(=O)N[C@@H](Cc1cnc[nH]1)C(=O)N[C@@H](C)C(=O)N[C@@H](C)C(=O)N[C@H](C(=O)N[C@@H](CC(N)=O)C(=O)N[C@@H](Cc1cnc[nH]1)C(=O)N[C@@H](Cc1ccc(O)cc1)C(=O)N[C@@H](CC(C)C)C(C)=O)C(C)C` [GWGSIFKHGRHAAKHIGHAAVNHYL]: the MIC came to 1.45 µM (≈ 4 µg/mL) in [11]; 1.45 µM (≈ 4 µg/mL) in assay [12]; 11.6 µM (≈ 32 µg/mL) against Candida albicans C627; 1.45 µM (≈ 4 µg/mL) in assay [13]; 0.723 µM (≈ 2 µg/mL) with Escherichia coli DC2; 1.45 µM (≈ 4 µg/mL) against Escherichia coli UB1005. Moreover, the minimum inhibitory concentration (MIC) in assay [14] amounted to 5.79 µM (≈ 16 µg/mL); in [15], 1.45 µM (≈ 4 µg/mL); in assay [16] it was 1.45 µM (≈ 4 µg/mL); in assay [17], 23.1 µM (≈ 64 µg/mL); in [18] it was 11.6 µM (≈ 32 µg/mL); in assay [19], 23.1 µM (≈ 64 µg/mL).

In the case of `CC[C@H](C)[C@H](NC(=O)[C@H](CCCCN)NC(=O)[C@@H]1CCCN1C(=O)[C@H](CC(C)C)NC(=O)[C@H](CC(C)C)NC(=O)[C@H](CO)NC(=O)CNC(=O)[C@H](CC(C)C)NC(=O)[C@H](C)NC(=O)CNC(=O)[C@H](CC(C)C)NC(=O)[C@H](CC(C)C)NC(=O)[C@H](Cc1ccccc1)NC(=O)[C@@H]1CCCN1C(=O)[C@H](Cc1ccccc1)NC(=O)[C@@H](N)Cc1ccccc1)C(=O)N[C@@H](Cc1ccccc1)C(N)=O` [FFPFLLGALGSLLPKIF], the MIC in assay [20] was 25 µM (≈ 47 µg/mL); in the assay on Nocardia asteroides, 6.3 µM (≈ 11.8 µg/mL); in assay [21], 12.5 µM (≈ 23.5 µg/mL).

With `CC[C@H](C)[C@H](NC(=O)[C@H](CCCNC(=N)N)NC(=O)[C@H](CCCNC(=N)N)NC(=O)[C@H](CC(C)C)NC(=O)[C@@H](N)Cc1c[nH]c2ccccc12)C(=O)NCC(=O)N[C@@H](CCCCN)C(=O)NCC(=O)N[C@H](C(=O)N[C@@H](CCCCN)C(=O)N[C@H](C(=O)N[C@H](C(=O)NCC(=O)NCC(=O)N[C@@H](C)C(=O)N[C@@H](C)C(=O)N[C@@H](CC(C)C)C(=O)N[C@@H](CC(=O)O)C(=O)N[C@@H](Cc1cnc[nH]1)C(=O)N[C@@H](CC(C)C)C(N)=O)[C@@H](C)CC)[C@@H](C)CC)C(C)C` [WLRRIGKGVKIIGGAALDHL], the MIC is no less than 58.9 µM in [11]; no less than 58.9 µM in assay [12]; 29.4 µM (≈ 64 µg/mL) in the assay with Candida albicans C627; 29.4 µM (≈ 64 µg/mL) in [13]; 29.4 µM (≈ 64 µg/mL) in the assay with Escherichia coli DC2; 29.4 µM (≈ 64 µg/mL) in the assay on Escherichia coli UB1005. Also, the minimal inhibitory concentration (MIC) in assay [14] was found to be 29.4 µM (≈ 64 µg/mL); in [15], 14.7 µM (≈ 32 µg/mL); in assay [16], 29.4 µM (≈ 64 µg/mL); in assay [17] it was 29.4 µM (≈ 64 µg/mL); in assay [18], 29.4 µM (≈ 64 µg/mL); in assay [19] it was 29.4 µM (≈ 64 µg/mL).

`CC[C@H](C)[C@H](NC(=O)CNC(=O)[C@H](CCCCN)NC(=O)[C@H](CC(C)C)NC(=O)[C@H](CCSC)NC(=O)[C@H](CC(N)=O)NC(=O)[C@H](CCCCN)NC(=O)[C@H](Cc1c[nH]c2ccccc12)NC(=O)[C@H](CC(C)C)NC(=O)[C@H](C)N)C(=O)NCC(=O)N[C@@H](CCCCN)C(=O)N[C@@H](CC(C)C)C(=O)N[C@@H](C)C(=O)NCC(=O)N[C@@H](CCCCN)C(N)=O` [ALWKNMLKGIGKLAGK]: the MIC in assay [1] turned out to be 2 µM (≈ 3.45 µg/mL); in [2] it was 8 µM (≈ 13.8 µg/mL); in [3] it was 15 µM (≈ 25.9 µg/mL); in assay [4], 8 µM (≈ 13.8 µg/mL); in [5], 2 µM (≈ 3.45 µg/mL); in assay [6] it was 2 µM (≈ 3.45 µg/mL). The MIC in the assay on Escherichia coli IP76-24 was 2 µM (≈ 3.45 µg/mL); in [7] it was no less than 70 µM; in assay [8], 4 µM (≈ 6.91 µg/mL); in assay [9] it was no less than 60 µM; in [10], 8 µM (≈ 13.8 µg/mL).

In the case of `CC[C@H](C)[C@H](NC(=O)[C@H](CCCCN)NC(=O)[C@H](CCCCN)NC(=O)[C@H](Cc1ccccc1)NC(=O)[C@H](CC(C)C)NC(=O)[C@H](CCCCN)NC(=O)[C@@H](N)Cc1c[nH]c2ccccc12)C(=O)N1CCC[C@H]1C(=O)N[C@@H](CCCCN)C(=O)N[C@@H](Cc1ccccc1)C(=O)N[C@@H](CC(C)C)C(=O)N[C@@H](Cc1cnc[nH]1)C(=O)N[C@@H](CC(C)C)C(=O)N[C@@H](C)C(=O)N[C@@H](CCCCN)C(=O)N[C@@H](CCCCN)C(=O)N[C@@H](Cc1ccccc1)C(N)=O` [WKLFKKIPKFLHLAKKF], the MIC was no less than 50 µM in assay [22]; 1.56 µM (≈ 3.39 µg/mL) in assay [23]; 0.78 µM (≈ 1.69 µg/mL) in [24]; no less than 50 µM in [25]; 6.25 µM (≈ 13.6 µg/mL) in assay [26]; no less than 50 µM in assay [27]. Moreover, the minimum inhibitory concentration (MIC) with Proteus vulgaris is 1.56 µM (≈ 3.39 µg/mL); in assay [28], 1.56 µM (≈ 3.39 µg/mL); in assay [29] it was 3.12 µM (≈ 6.79 µg/mL); in assay [30], no less than 50 µM.

The record behind these values is DBAASP.
